# Laboratory results taken from ChEMBL document CHEMBL1132002, “Interaction of tyrosyl aryl dipeptides with S. aureus tyrosyl tRNA synthetase: inhibition and crystal structure of a complex” (Bioorg Med Chem Lett, 1999).
# Square brackets hold non-standard residues; d marks the D form. Peptide text beside a SMILES is read from it. ξ: configuration not given here. ξHpg = NC(C(=O)O)c1ccc(O)cc1
# System: Tyrosine--tRNA ligase (Staphylococcus aureus)
# Experiment: Compound was tested for inhibition of Staphylococcus aureus tyrosyl tRNA Synthetase; NI=No inhibition
row,IC50,SMILES
1,No inhibition,N[C@@H](Cc1ccc(O)cc1)C(=O)N[C@@H](C(=O)O)c1ccccc1
2,No inhibition,COC(=O)C(NC(=O)[C@@H](N)Cc1ccc(O)cc1)c1ccc(O)cc1 (some centres not stated) (H-Tyr-[ξHpg]-OMe)
